Measured values reported in publication PMC6838683, “Discovery of Human Signaling Systems: Pairing Peptides to G Protein-Coupled Receptors” (Cell, 2019).
Positions of bridges follow the written chain, without caps; N, C: chain ends. Residues, ends and D or L forms follow the SMILES beside them.

Tests used:
GPR68 [1] = target: T1, GPR68 (Homo sapiens, UniProt Q15743); test: Dynamic mass redistribution (DMR), concentration-response; assay type: cell-based; parameters: hIL-2Ra signal peptide (N); expressed in transfected cells; details: GPR68; dynamic mass redistribution, concentration-response; mean, SEM and n (3-4)
How it was run: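 Doxycycline-induced (0.1 μg/ml) SNAP-tagged receptors in TREx 293 cells, equilibrated 90 min at 22°C in HEPES-buffered HBSS, pH 7.4, with 0.1% DMSO. Peptide-evoked optical wavelength shift recorded for 60 min at 22°C, buffer/solvent corrected and quantified as area under the curve. Mean ± SEM of at least 3 independent experiments.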
Target sequence in this assay (Q15743 2-365 limits assumed): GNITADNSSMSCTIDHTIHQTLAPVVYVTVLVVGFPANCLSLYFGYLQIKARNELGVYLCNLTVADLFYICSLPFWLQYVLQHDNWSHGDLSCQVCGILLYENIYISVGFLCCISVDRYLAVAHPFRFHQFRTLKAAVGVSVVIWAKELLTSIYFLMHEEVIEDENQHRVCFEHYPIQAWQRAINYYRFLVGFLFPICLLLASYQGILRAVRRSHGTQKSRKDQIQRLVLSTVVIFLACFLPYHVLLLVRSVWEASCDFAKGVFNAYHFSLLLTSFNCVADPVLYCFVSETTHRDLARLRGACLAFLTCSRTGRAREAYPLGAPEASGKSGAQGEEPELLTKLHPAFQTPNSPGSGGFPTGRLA

HA-OGR1 (GPR68) = target: T2, HA-OGR1 (GPR68) (Homo sapiens, UniProt Q15743); test: Ca2+ mobilization assay (Fluo-4); assay type: cell-based; details: GPR68, calcium mobilization, mean, SEM and n (3-5) in separate columns
T2 construct: HA; expressed in transfected cells
Method: Peptide-dependent Ca^2+ mobilization responses were measured in HEK293 stable cell lines (HA-OGR1 (GPR68) and vector pcDNA) ([Saxena et al., 2012]) that were seeded in 96-well plates (1 × 10^5 cells/well) and cultured at 37°C with 5% CO2 to near confluence in DMEM with 10% FBS (Corning). Six hours prior to assay, medium was changed to pH 8.0 or pH 7.4 HAM’s F12 Nutrient Mixture (GIBCO) without FBS and transferred to a 37°C incubator without CO2. One hour prior to stimulation, cells were incubated in pH 8.0 or pH 7.4 HBSS with Ca^2+ and Mg^2+ (GIBCO), supplemented with 15 mM HEPES, 2 μM Fluo-4 AM (Invitrogen) and 1.5 mM probenecid ([…] to prevent Fluo-4 efflux) as described previously ([Pera et al., 2018]). Indicated peptides were pipetted using an automated system and emission signal was recorded at 525 nm after excitation at 485 nm using Flex Station III (Molecular Devices). Ca^2+ mobilization responses were determined by subtracting basal fluorescence from the net peak of agonist-induced fluorescence. Ionomycin (1 μM) was used to calculate the maximum Ca^2+ signal to normalize peptide-mediated responses.

GPR68 [2] = target: T1, GPR68; test: Real-time receptor internalization (TR-FRET), concentration-response; assay type: cell-based; parameters: hIL-2Ra signal peptide (N); expressed in transfected cells; details: GPR68; real-time internalization; mean, SEM and n (3)
How it was run: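 Doxycycline-induced SNAP-tagged receptor cells had surface receptors labelled with Lumi4-Tb and fluorescein-O-acetic acid added. TR-FRET internalization after peptide addition was recorded for 60 min at 37°C (ex 340, em 520/615 nm). Area under the curve, normalized to plate average, gave concentration-response curves.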
Target sequence in this assay (Q15743 2-365 limits assumed): as above

GPR68 [3] = target: T1, GPR68; test: GloSensor cAMP assay (Gs), allosteric operational model fitting; assay type: cell-based; parameters: expressed in transfected cells; host or cells: HEK293T, transient (PEI), co-transfected with GloSensor cAMP plasmid; details: GPR68; GloSensor cAMP; mean, SEM and n (4)
Method: GPR68-mediated cAMP signaling was measured using GloSensor cAMP assays as published previously ([Huang et al., 2015], [Yu et al., 2019]) with modifications as indicated below. Calcium- and magnesium-free HBSS was supplemented with different organic buffer reagents for different pH solutions, 20 mM 2-(N-morpholino)ethanesulfonic acid (MES, Alfa Aesar) for pH 6.00 – 6.70, 20 mM 4-(2-hydroxyethyl)-1-piperazineethanesulfonic acid (HEPES, Fisher) for pH 6.80 – 8.20, and 20 mM (tris(hydroxymethyl)methylamino)propanesulfonic acid (TAPS) for pH 8.30 – 8.60. The phosphodiesterase (PDE) inhibitor Ro 20-1724 (10 μM final, Cayman Chemical) was included in pH buffers to eliminate potential effect of PDE […]. HEK293T cells were transfected with a modified polyethylenimine (PEI, Polysciences) transfection method ([Longo et al., 2013]). For a 15-cm dish of HEK293T cells with 25 mL growth medium, 8 μg receptor DNA and 8 μg GloSensor DNA (Promega) were mixed in 1 mL of Opti-MEM medium followed by addition of 80 μL PEI reagents. The mixture was added to cells after 20 min incubation at room temperature. Overnight transfected cells were plated in poly-L-lysine (Sigma) coated 384-well white clear bottom plates (Greiner Bio-One, #781098) using DMEM (Corning) + 1% dialyzed FBS (Omega Scientific) for at least 6 h (up to 24 h). Cells were removed of medium before receiving 20 μL/well of 3.5 mM luciferin (Goldbio) prepared in assay buffer (HBSS, 20 mM TAPS, pH 8.40, 10 μM Ro 20-1724) for 1 h at 37°C. Luciferin loading solutions were removed and premixed drug solutions at desired pH conditions were added to cells (25 μL/well). Luminescence was measured 25-30 min after drug application. Results were normalized (basal and maximum responses in the absence of modulator were set to be 0 and 100%) and pooled for analysis using GraphPad Prism.
All of the other parameters, including allosteric affinity cooperativity (α), allosteric modulator binding affinity KB, orthosteric agonist (protons) efficacy τA, system maximal response, and slope factor n were all globally shared for all datasets for each modulator. […] We therefore used an allosteric index, log(αβ/KB) ([Kenakin, 2017a]), which contains both allosteric binding affinity and cooperativity, to quantify the overall allosteric activity.
Target sequence in this assay (Q15743 whole entry): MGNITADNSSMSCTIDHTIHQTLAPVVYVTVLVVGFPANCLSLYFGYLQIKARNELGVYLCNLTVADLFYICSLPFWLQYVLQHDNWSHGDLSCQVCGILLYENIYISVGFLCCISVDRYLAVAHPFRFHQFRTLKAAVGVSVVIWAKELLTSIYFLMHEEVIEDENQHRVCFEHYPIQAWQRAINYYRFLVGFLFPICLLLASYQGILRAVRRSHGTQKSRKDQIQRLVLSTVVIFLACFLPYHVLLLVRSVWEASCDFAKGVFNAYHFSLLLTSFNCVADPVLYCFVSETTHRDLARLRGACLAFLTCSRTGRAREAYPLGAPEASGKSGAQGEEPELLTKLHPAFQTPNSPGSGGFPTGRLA

MRGPRX2 = target: T3, MRGPRX2 (Homo sapiens, UniProt Q96LB1); test: β-arrestin recruitment (Tango), known peptide receptors; assay type: cell-based; details: mean, n = 3
T3 construct: host or cells: HTLA cells (HEK293-derived)
T3 sequence (Q96LB1 1-330): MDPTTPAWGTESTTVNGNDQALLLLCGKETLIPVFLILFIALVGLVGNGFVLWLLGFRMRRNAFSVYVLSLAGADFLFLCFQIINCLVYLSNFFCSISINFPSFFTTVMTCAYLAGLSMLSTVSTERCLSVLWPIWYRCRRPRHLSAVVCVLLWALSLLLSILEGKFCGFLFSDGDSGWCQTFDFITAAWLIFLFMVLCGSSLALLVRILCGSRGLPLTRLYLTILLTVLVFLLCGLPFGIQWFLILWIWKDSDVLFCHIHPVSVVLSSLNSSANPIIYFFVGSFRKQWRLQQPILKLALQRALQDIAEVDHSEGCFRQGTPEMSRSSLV

MAS1 = target: T4, MAS1 (Homo sapiens, UniProt P04201); test: β-arrestin recruitment (Tango), indicative pairing; assay type: cell-based; details: mean, n = 3
T4 construct: host or cells: HTLA cells (HEK293-derived)
T4 sequence (P04201 1-325): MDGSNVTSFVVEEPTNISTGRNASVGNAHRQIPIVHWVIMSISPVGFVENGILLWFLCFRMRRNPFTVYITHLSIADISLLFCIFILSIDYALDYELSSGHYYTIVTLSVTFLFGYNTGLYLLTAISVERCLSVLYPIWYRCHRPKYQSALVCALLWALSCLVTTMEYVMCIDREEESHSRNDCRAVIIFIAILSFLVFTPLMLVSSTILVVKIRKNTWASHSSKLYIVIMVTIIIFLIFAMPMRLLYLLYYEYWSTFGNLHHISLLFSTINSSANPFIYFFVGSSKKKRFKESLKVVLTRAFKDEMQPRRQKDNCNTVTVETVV
Method: The peptide library was additionally screened against 120 GPCR targets in parallel, including all available orphan receptors and 27 known class A peptide receptors using the Tango assay platform ([Kroeze et al., 2015]). Briefly, HTLA cells (a HEK293 cell line stably expressing a tTA-dependent luciferase reporter and a β-arrestin2-TEV fusion gene) were plated 10,000 cells/well in poly-L-lysine–coated clear-bottom white 384-well plates in DMEM supplemented with 10% FBS, 100 U/ml penicillin and 100 μg/ml streptomycin, 2 μg/ml puromycin and 100 μg/ml hygromycin B. 24 hr later, cells were transfected with Tango GPCR constructs using the calcium phosphate method ([Jordan et al., 1996]). The next day, culture medium was changed to DMEM + 1% dFBS and 10 μM peptides were added for overnight stimulation. Bright-Glo solution (Promega) was incubated for 15–20 min at room temperature, and luminescence was counted using a Trilux luminescence counter (Wallac).
For subsequent peptide validation experiments using Tango assays, HTLA cells were transiently transfected in 10 cm dishes with the receptor of interest using polyethylenimine (PEI) ([Longo et al., 2013]). After 24 hr, 25,000 cells/well were plated in clear bottom, white-walled 384-well plates. Assays were performed as described above, with luminescence measured using an EnSpire 2300 Multimode plate reader (PerkinElmer). Luminescence counts were exported into Excel and were analyzed using GraphPad Prism 7.

[4] = tested on: 120 GPCR targets, including all available orphan receptors and 27 known class A peptide receptors; test: Peptide library screen, β-arrestin recruitment (Tango, fold change, 10 μM); assay type: cell-based, human; details: for Active at: (activity in b-arrestin recruitment assays): Tango, receptor(s) at which the known library peptide was active, among its known GPCR target(s), validated pairings; for Confirmation of known target in Tango: repeat hitters of the peptide library screen, the value names the known receptor(s) confirmed in the β-arrestin recruitment (Tango) screen
How it was run: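 HTLA cells (HEK293 with tTA-dependent luciferase and β-arrestin2-TEV) transiently transfected with Tango GPCR constructs, then stimulated overnight with 10 μM peptides in 1% dFBS medium. Luciferase luminescence read after 15–20 min Bright-Glo incubation at room temperature.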

T2 sequence (Q15743 whole entry): as the sequence (Q15743 whole entry) above

Row | Compound | DMR assays Emax (peak or AUC) (GPR68 [1]) | Internalization assays Emax (AUC) (GPR68 [2]) | pEC50, Tango (fold over basal) (MAS1) | Active at: (activity in b-arrestin recruitment assays) [4] | Confirmation of known target in Tango [4] | other results
1 | CC[C@H](C)[C@H](NC(=O)[C@H](CCCNC(=N)N)NC(=O)[C@H](C)NC(=O)CNC(=O)[C@H](CCCCN)NC(=O)[C@H](CCCNC(=N)N)NC(=O)[C@@H](NC(=O)[C@H](C)NC(=O)[C@@H]1CSSC[C@H](NC(=O)[C@H](CCSC)NC(=O)[C@@H]2CCCN2C(=O)[C@@H](NC(=O)[C@H](CCC(N)=O)NC(=O)CNC(=O)[C@@H](N)Cc2ccc(O)cc2)C(C)C)C(=O)N[C@@H](CC(=O)O)C(=O)N[C@@H](C)C(=O)NCC(=O)N[C@@H](CCC(=O)O)C(=O)N[C@@H](CCC(N)=O)C(=O)N1)C(C)C)C(N)=O [139 original] (H-YGQVPMCDAGEQCAVRKGARI-NH2; disulfide 7-13; N-terminus assumed) | 944453 | 9.4 |  |  |  | Emax (HA-OGR1 (GPR68); read-out: Calcium mobilization assays Emax (% ionomycin)): 73.1%; EC50 (HA-OGR1 (GPR68); read-out: Calcium mobilization assays pEC50 (converted)): 7.08 µM
2 | CC[C@H](C)[C@H](NC(=O)[C@H](CCCNC(=N)N)NC(=O)[C@H](C)NC(=O)CNC(=O)[C@H](CCCCN)NC(=O)[C@H](CCCNC(=N)N)NC(=O)[C@@H](NC(=O)[C@H](C)NC(=O)[C@@H]1CSSC[C@H](NC(=O)[C@H](CCSC)NC(=O)[C@@H]2CCCN2C(=O)[C@@H](NC(=O)[C@H](CCC(N)=O)NC(=O)CNC(=O)[C@@H](N)Cc2ccc(O)cc2)C(C)C)C(=O)N[C@@H](CC(=O)O)C(=O)N[C@@H](C)C(=O)NCC(=O)N[C@@H](CCC(=O)O)C(=O)N[C@@H](CCC(N)=O)C(=O)N1)C(C)C)C(N)=O [139 resynthesized] (H-YGQVPMCDAGEQCAVRKGARI-NH2; disulfide 7-13; N-terminus and C-terminus assumed) | 749669 | 13.6 |  |  |  | GloSensor cAMP assays Emax (fold change) (GPR68 [3]): 25.2 fold change
3 | AGCKNFFWKTFTSC (disulfide) [Peptide 103] |  |  | 4.33 | SST2 | SST2 | Emax, Tango (fold over basal) (MRGPRX2): 6.6 fold over basal; pEC50, Tango (fold over basal) (MRGPRX2): 4.98
4 | DRMPCRNFFWKTFSSCK (disulfide) [Peptide 121] |  |  | 4.96 |  | SST2 | 
5 | KPLRKDENGTSVAEYPMSASQSNKGVDVNNAVV [Peptide 193] |  |  | 9.32 |  |  | Emax, Tango (fold over basal) (MAS1): 1.3 fold over basal
6 | YGGFLRRIRPKLKWDNQ [Peptide 119] |  |  | 5.04 | kappa | kappa, mu | 
